Source: patent publication US20260092074A1, “Annelated Pyridines as Steroidogenesis Inhibitors, Preparation Method and Use Thereof” (Guangzhou Vinnocent Pharmaceutical Limited, priority 2022, published 2026)
pIC50: −log10 of the molar value.

Assays:
human CYP11B1 = target: T1, human CYP11B1 (Homo sapiens, UniProt P15538); experiment: Inhibition of hCYP11B1 in transfected V79 cells; format: cell-based; conditions: hamster V79 cells expressing human CYP11B1; substrate 11-deoxycortisol 200 nM
T1 construct: expressed in transfected cells
T1 sequence (P15538 25-503): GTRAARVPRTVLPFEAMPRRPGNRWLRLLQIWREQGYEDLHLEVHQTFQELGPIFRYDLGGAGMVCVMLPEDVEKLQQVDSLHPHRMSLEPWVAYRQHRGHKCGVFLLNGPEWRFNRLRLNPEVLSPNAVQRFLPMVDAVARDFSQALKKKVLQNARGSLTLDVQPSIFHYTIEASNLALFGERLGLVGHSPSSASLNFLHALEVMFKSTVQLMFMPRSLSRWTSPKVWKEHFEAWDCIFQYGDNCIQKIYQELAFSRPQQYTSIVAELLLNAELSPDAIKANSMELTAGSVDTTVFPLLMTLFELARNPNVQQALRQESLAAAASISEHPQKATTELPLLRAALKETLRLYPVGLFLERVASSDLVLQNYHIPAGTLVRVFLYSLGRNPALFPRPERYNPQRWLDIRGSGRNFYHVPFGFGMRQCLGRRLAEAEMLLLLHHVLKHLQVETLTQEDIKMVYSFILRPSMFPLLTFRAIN
Procedure, shortened: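 Reactions started with 200 nM 11-deoxycortisol, ran for 30 min and were stopped with ethyl acetate, after a 2 h compound preincubation. The host was stably transfected V79 hamster cells carrying human CYP11B1 plus rat P450 reductase. Percent inhibition, from LC-MS/MS or HPLC (260 nm) quantitation of substrate and product, gave the IC50.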

human CYP11B2 = target: T2, human CYP11B2 (Homo sapiens, UniProt P19099); experiment: Inhibition of hCYP11B2 in transfected V79 cells; format: cell-based; conditions: hamster V79 cells expressing human CYP11B2; substrate 11-deoxycorticosterone 200 nM
T2 construct: expressed in transfected cells
T2 sequence (P19099 25-503): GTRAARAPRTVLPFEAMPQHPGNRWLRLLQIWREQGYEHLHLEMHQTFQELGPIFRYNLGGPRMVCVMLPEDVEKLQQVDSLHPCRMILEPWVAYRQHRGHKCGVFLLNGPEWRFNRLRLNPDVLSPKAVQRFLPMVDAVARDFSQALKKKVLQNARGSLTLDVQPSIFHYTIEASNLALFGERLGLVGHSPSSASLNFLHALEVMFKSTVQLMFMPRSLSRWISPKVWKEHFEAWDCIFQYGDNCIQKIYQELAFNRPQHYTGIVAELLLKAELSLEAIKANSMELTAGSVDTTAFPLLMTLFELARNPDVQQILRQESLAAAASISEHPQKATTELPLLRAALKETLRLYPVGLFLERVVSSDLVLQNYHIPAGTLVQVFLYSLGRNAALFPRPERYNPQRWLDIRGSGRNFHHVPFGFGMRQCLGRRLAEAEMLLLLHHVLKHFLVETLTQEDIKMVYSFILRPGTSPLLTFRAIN
Procedure, shortened: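 The substrate (200 nM, 30 min) was added after a 2 hour compound pre-incubation in lentivirus-transduced V79 cells stably expressing human CYP11B2 plus rat NADPH-P450 reductase.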

SMILES | pIC50 (human CYP11B1) | pIC50 (human CYP11B2)
N#Cc1ccc(-c2cncc3c2SCCN3S(=O)(=O)C2CN(S(=O)(=O)c3cccc(C#N)c3)C2)cc1 [S77, 3-((3-((8-(4-Cyanophenyl)-2,3-dihydro-4H-pyrido[4,3-b][1,4]thiazin-4-yl)sulfonyl)azetidin-1-yl)sulfonyl)benzonitrile] | 7.49 | 9.10
COc1ccc(S(=O)(=O)N2CC(S(=O)(=O)N3CCSc4c(-c5ccc(C#N)cc5)cncc43)C2)cc1 [S78, 4-(4-((1-((4-Methoxyphenyl)sulfonyl)azetidin-3-yl)sulfonyl)-3,4-dihydro-2H-pyrido[4,3-b][1,4]thiazin-8-yl)benzonitrile] | 7.42 | 8.92
COc1cccc(S(=O)(=O)N2CC(S(=O)(=O)N3CCSc4c(-c5ccc(C#N)cc5)cncc43)C2)c1 [S79, 4-(4-((1-((3-Methoxyphenyl)sulfonyl)azetidin-3-yl)sulfonyl)-3,4-dihydro-2H-pyrido[4,3-b][1,4]thiazin-8-yl)benzonitrile] | 7.80 | 9.10
N#Cc1ccc(CN2CC(S(=O)(=O)N3CCSc4c(-c5ccc(C#N)cc5)cncc43)C2)cc1 [S80, 4-(4-((1-(4-Cyanobenzyl)azetidin-3-yl)sulfonyl)-3,4-dihydro-2H-pyrido[4,3-b][1,4]thiazin-8-yl)benzonitrile] | 7.74 | 9.22
N#Cc1ccc(-c2cncc3c2SCCN3S(=O)(=O)C2CN(Cc3cccc(C#N)c3)C2)cc1 [S81, 3-((3-((8-(4-Cyanophenyl)-2,3-dihydro-4H-pyrido[4,3-b][1,4]thiazin-4-yl)sulfonyl)azetidin-1-yl)methyl)benzonitrile] | 7.72 | 9.40
N#Cc1ccc(-c2cncc3c2SCCN3S(=O)(=O)C2CN(Cc3ccc(F)cc3)C2)cc1 [S82, 4-(4-((1-(4-Fluorobenzyl)azetidin-3-yl)sulfonyl)-3,4-dihydro-2H-pyrido[4,3-b][1,4]thiazin-8-yl)benzonitrile] | 8.03 | 9.40
N#Cc1ccc(-c2cncc3c2SCCN3S(=O)(=O)C2CN(Cc3cccc(F)c3)C2)cc1 [S83, 4-(4-((1-(3-Fluorobenzyl)azetidin-3-yl)sulfonyl)-3,4-dihydro-2H-pyrido[4,3-b][1,4]thiazin-8-yl)benzonitrile] | 7.68 | 9.10
COc1ccc(CN2CC(S(=O)(=O)N3CCSc4c(-c5ccc(C#N)cc5)cncc43)C2)cc1 [S84, 4-(4-((1-(4-Methoxybenzyl)azetidin-3-yl)sulfonyl)-3,4-dihydro-2H-pyrido[4,3-b][1,4]thiazin-8-yl)benzonitrile] | 7.24 | 8.96
COc1cccc(CN2CC(S(=O)(=O)N3CCSc4c(-c5ccc(C#N)cc5)cncc43)C2)c1 [S85, 4-(4-((1-(3-Methoxybenzyl)azetidin-3-yl)sulfonyl)-3,4-dihydro-2H-pyrido[4,3-b][1,4]thiazin-8-yl)benzonitrile] | 7.43 | 9.05
CC(=O)Nc1ccccc1C(=O)N1CCSc2c(-c3ccc(C#N)cc3)cncc21 [S86, N-(2-(8-(4-Cyanophenyl)-3,4-dihydro-2H-pyrido[4,3-b][1,4]thiazine-4-carbonyl)phenyl) acetamide] | 5.81 | 7.66
N#Cc1ccc(-c2cncc3c2SCCN3C(=O)c2cccc(C(F)(F)F)c2)cc1 [S87, 4-(4-(3-(Trifluoromethyl)benzoyl)-3,4-dihydro-2H-pyrido[4,3-b][1,4]thiazin-8-yl)benzonitrile] | 6.28 | 7.92
N#Cc1ccc(-c2cncc3c2SCCN3C(=O)c2ccc(C(F)(F)F)cc2)cc1 [S88, 4-(4-(4-(Trifluoromethyl)benzoyl)-3,4-dihydro-2H-pyrido[4,3-b][1,4]thiazin-8-yl)benzonitrile] | 6.60 | 8.17
Cc1ccc(C(=O)N2CCSc3c(-c4ccc(C#N)cc4)cncc32)cc1 [S89, 4-(4-(4-Methylbenzoyl)-3,4-dihydro-2H-pyrido[4,3-b][1,4]thiazin-8-yl)benzonitrile] | 5.55 | 7.37
Cc1ccccc1C(=O)N1CCSc2c(-c3ccc(C#N)cc3)cncc21 [S90, 4-(4-(2-Methylbenzoyl)-3,4-dihydro-2H-pyrido[4,3-b][1,4]thiazin-8-yl)benzonitrile] | 5.35 | 7.19
Cc1cccc(C(=O)N2CCSc3c(-c4ccc(C#N)cc4)cncc32)c1 [S91, 4-(4-(3-Methylbenzoyl)-3,4-dihydro-2H-pyrido[4,3-b][1,4]thiazin-8-yl)benzonitrile] | 5.44 | 7.36
N#Cc1ccc(-c2cncc3c2SCCN3C(=O)c2ccc(Cl)cc2)cc1 [S92, 4-(4-(4-Chlorobenzoyl)-3,4-dihydro-2H-pyrido[4,3-b][1,4]thiazin-8-yl)benzonitrile] | 6.07 | 7.89
N#Cc1ccc(-c2cncc3c2SCCN3C(=O)c2cccc(Cl)c2)cc1 [S93, 4-(4-(3-Chlorobenzoyl)-3,4-dihydro-2H-pyrido[4,3-b][1,4]thiazin-8-yl)benzonitrile] | 5.88 | 7.62
N#Cc1ccc(C(=O)N2CCSc3c(-c4ccc(C#N)cc4)cncc32)cc1 [S94, 4-(4-(4-Cyanobenzoyl)-3,4-dihydro-2H-pyrido[4,3-b][1,4]thiazin-8-yl)benzonitrile] | 5.58 | 7.42
N#Cc1ccc(-c2cncc3c2SCCN3C(=O)c2cccc(C#N)c2)cc1 [S95, 3-(8-(4-Cyanophenyl)-3,4-dihydro-2H-pyrido[4,3-b][1,4]thiazine-4-carbonyl)benzonitrile] | 5.69 | 7.10
COc1cccc(C(=O)N2CCSc3c(-c4ccc(C#N)cc4)cncc32)c1 [S96, 4-(4-(3-Methoxybenzoyl)-3,4-dihydro-2H-pyrido[4,3-b][1,4]thiazin-8-yl)benzonitrile] | 6.19 | 7.96
COc1ccc(C(=O)N2CCSc3c(-c4ccc(C#N)cc4)cncc32)cc1 [S97, 4-(4-(4-Methoxybenzoyl)-3,4-dihydro-2H-pyrido[4,3-b][1,4]thiazin-8-yl)benzonitrile] | 5.38 | 7.68
COc1ccc(C(=O)N2CCSc3c(-c4cc5cc(C#N)ccc5o4)cncc32)cc1 [S98, 2-(4-(4-Methoxybenzoyl)-3,4-dihydro-2H-pyrido[4,3-b][1,4]thiazin-8-yl)benzofuran-5-carbonitrile] | 5.93 | 7.96
N#Cc1ccc(-c2cncc3c2SCC(=O)N3)cc1 [S99, 4-(3-Oxo-3,4-dihydro-2H-pyrido[4,3-b][1,4]thiazin-8-yl)benzonitrile] | 6.15 | 8.16
N#Cc1ccc(-c2cncc3c2SCC(=O)N3C(=O)c2ccc(Cl)cc2)cc1 [S100, 4-(4-(4-chlorobenzoyl)-3-oxo-3,4-dihydro-2H-pyrido[4,3-b][1,4]thiazin-8-yl)benzonitrile] | 6.02 | 7.97
N#CC1CN(S(=O)(=O)N2CCSc3c(-c4cc5cc(Cl)ccc5o4)cncc32)C1 [S101, 1-((8-(5-Chlorobenzofuran-2-yl)-2,3-dihydro-4H-pyrido[4,3-b][1,4]thiazin-4-yl)sulfonyl) azetidine-3-carbonitrile] | 5.57 | 7.60
O=S(=O)(N1CCn2cnnc2C1)N1CCSc2c(-c3cc4cc(Cl)ccc4o3)cncc21 [S102, 8-(5-Chlorobenzofuran-2-yl)-4-((5,6-dihydro-[1,2,4]triazolo[4,3-a]pyrazin-7 (8H)-yl)sulfonyl)-3,4-dihydro-2H-pyrido[4,3-b][1,4]thiazine] | 5.43 | 7.44
O=S(=O)(C1CN(C2COC2)C1)N1CCSc2c(-c3cc4cc(Cl)ccc4o3)cncc21 [S103, 8-(5-Chlorobenzofuran-2-yl)-4-((1-(oxetan-3-yl)azetidin-3-yl)sulfonyl)-3,4-dihydro-2H-pyrido[4,3-b][1,4]thiazine] | 6.02 | 8.30
